# Measured values: publication PMC9510126, “Hydrophobicity is a key determinant in the activity of arginine-rich cell penetrating peptides” (Scientific Reports, 2022)
# Ends that are not written are not given here. * marks the point of attachment. RhodamineB = CCN(CC)c1ccc2c(-c3ccccc3C(=O)*)c3ccc(=[N+](CC)CC)cc-3oc2c1
# Experiments:
# [1] = RP-18 TLC hydrophobicity (1-Rf) of Ac-X-NH2 analogs; type: physicochemical; settings: RP18 TLC, 40% acetonitrile / 60% PBS (10 mM phosphate buffer), pH 4 vs pH 8
# Experimental: (§1) In order to assess the hydrophobicity contributed by each X group, the peptides were first analyzed by reverse phase HPLC using a C18 column, using gradients of buffer A (water/TFA 99.9:0.1) and buffer B (acetonitrile/water/TFA 89.9:10:0.1 v:v:v) (gradient of 0–40% B over 20 min). […] All d(X)TAT peptides eluted over a range of 10–35% acetonitrile. […] One caveat of this approach is that the buffer system used for peptide analysis is pH 2 (due to the presence of TFA, required to protonate residue side chains). However, pH 2 is not representative of the pH that CPPs may be exposed to when in contact with cells, either pH 7.2 outside the plasma membrane, or pH between 6.5 and 4.5 while inside acidic endosomes. In order to establish the relative hydrophobicities of d(X)TAT peptides at these pHs, we sought to use other techniques, including thin layer chromatography using C18, aluminum oxide or silica stationary phases. Unfortunately, the arginine-rich peptides could not be separated on these systems. To solve this problem, each individual X group was synthesized, using acetylated and amidated N and C-terminal positions to mimic the peptide backbone found in the d(X)TAT constructs (Fig. 1A, Figure S11). Each Ac-X-NH2 group was analyzed by HPLC and by RP18 TLC, using 40% acetonitrile and 60% PBS as mobile phase. The HPLC elutions of Ac-X-NH2 correlated with the HPLC elutions of their respective d(X)TAT counterparts (Fig. 1C). Similarly, the relative hydrophobicities of Ac-X-NH2 determined by TLC (measured as 1-Rf) at pH 4 or 8 were in good agreement with the results obtained by HPLC (Fig. 1D). […] In the case of DEAC, the protonation state of the fluorophore has, to our knowledge, not been characterized.
# Hydrophobic substituents (10 µL) were developed on aluminum-backed F254 RP-18 TLC plates (EMD Millipore). Plates were cut into 6 cm × 6 cm squares and developed in 40% acetonitrile/60% 10 mM phosphate buffer first along one axis at pH 2.0, then along the second axis at pH 7.4. Peptide substituents that could not be easily identified under long-wave UV light were stained with iodine for 10–20 min. Retention factors (Rf) were calculated based on the distance traveled by each compound between the starting spotted location and the final solvent front location.
# [2] = parameters: method as in PMID 24227203; settings: cited from earlier work
# live cells = settings: cited from earlier work
# Experimental: Several strategies have been pursued to improve the delivery properties of CPPs like TAT. They include addition of endosomolytic peptide sequences, addition of hydrophobic residues and cyclization. We and others have shown that reagents which combine multiple copies of the TAT peptide, or TAT-like analogs, are also more efficient at entering cells than their monomeric TAT counterpart. […] In particular, protein payloads co-incubated with dfTAT reach the cytosol of cells by escaping late endosomes specifical ...
# [3] = C18 reverse phase HPLC hydrophobicity of (X)TAT and d(X)TAT peptides; type: physicochemical; settings: chromatographic, C18, 0–40% B over 20 min
# Experimental: as §1
# All rpHPLC retention times were analyzed using an Agilent HP 1200 series instrument on an analytical Phenomenex Luna Omega Polar C18 column (5 μm, 4.6 mm × 250 mm). The flow rate was 2 mL/min, and detection was at 214 nm. A binary solvent system was used comprising 99.9% H2O/0.1% TFA (solvent A) and 90% Acetonitrile/9.9% H2O/0.1% TFA (solvent B). […]
# MDA-MB-231 cells = assay: Delivery of TMR-k5 probe into live cells (nuclear staining); type: cell-based, human; settings: MDA-MB-231, TMR-k5 20 μM, 1 h, biological triplicates
# From the text: To test the relative delivery efficiency of the d(X)TAT peptides, the cell lines MDA-MB-231 (epithelial-like, human breast cancer, spindle-shaped) and Neuro-2a (mouse neuroblastoma with neuronal and amoeboid stem cell morphology) were chosen. These cell lines are routinely used in cancer research, neuroscience, and toxicology. In the context of this study, we rationalized that the distinct differences in origin and characteristics between MDA-MB-231 and Neuro-2a properties may be useful to assess the generality of the results obtained. MDA-MB-231 or Neuro-2a cells were incubated with d(X)TAT peptides at various concentrations and TMR-k5 (20 μM) for 1 h. Cells were then washed, incubated with the DNA stain Hoechst and the live/dead marker SYTOX green (or SYTOX blue), and imaged by fluorescence microscopy. The localization of TMR-k5 in individual nuclei was then assessed by measuring the overlap between TMR and Hoechst signals (Fig. 2, Figure S13). […] This is because, in our experience, dfTAT and dfTAT analogs display a threshold behavior where, below a certain endosomal concentration, endosomal leakage is not achieved. In contrast above this threshold most late endosomes are permeabilized. […] Our rationale was therefore to titrate cells with different concentrations of d(X)TAT agents, monitor how many cells display cytosolic/nuclear delivery of TMR-k5, and compare the different d(X)TAT peptides.
# MDA-MB-231 and Neuro2a cells obtained from ATCC (breast cancer-derived epithelial) were cultured in humidified atmosphere at 5% CO2 and 37 °C. Cells were seeded in plastic 48-well plates (Fisher) for quantitative analysis or 8-well Labtek II plates (Fisher) for qualitative imaging at 100× magnification. The cells were grown to 80–90% confluency in a 37 °C humidified atmosphere containing 5% CO2. Cells were washed three times with Leibovitz’s L15 media (L15) (Fisher). Cells were then incubated with peptide and 20 µM of the TMR-k5 pentalysine probe at 37 °C for 1 h. This was followed by washing the cells three times with L15 supplemented with heparin (Sigma-Aldrich) (1 mg/mL) and an extra L15 wash. […] Additionally, the cell permeable dye Hoechst 33342 (Thermo Fisher Scientific o) was used for nuclear staining. Cells were imaged using an EVOS FL Auto 2 inverted microscope (Thermo Fisher Scientific). The microscope is equipped with a heating chamber maintained at 37 °C. Images were acquired using bright field imaging and five fluorescence filter sets: CFP (Ex = 436 ± 10 nm, Em = 480 ± 20 nm), RFP (Ex = 560 ± 20 nm, Em = 630 ± 35 nm), FITC (Ex = 488 ± 10 nm Em = 520 ± 20 nm), DAPI (Ex = 350 ± 50 nm, Em = 460 ± 25 nm), […]. For image viewing and processing individual images, the Celleste 4.0 software (Thermo Fisher Scientific) was used. Nuclear regions in 20× images where identified using Hoechst staining (the quantification process is described in Figure S13). The intensity of these objects in the TMR channel was then determined using the Celleste software. Cells stained by the SYTOX or DRAQ dyes were considered dead and not counted as positive for delivery. Cells displaying a nuclear TMR-k5 fluorescence above the fluorescence threshold determined for TMR-k5 alone were considered positive for delivery (if excluding SYTOX or DRAQ7 stain, and if visually showing stained nucleoli for confirmation of intracellular localization). The percentage of cells positive for TMR-k5 nuclear staining was then calculated, using Hoechst-stained cells to count the total number of cells present. […] Instead, this assay quantifies the number of cells in which the nuclear fluorescence of TMR-k5 is above a detection threshold. This threshold is dependent on the microscope, imaging conditions, and the concentration of TMR-k5 used during incubation (Figure S13). The reproducibility of all the experiments was assessed by performing experiments with independent batches of cell cultures on three different days (i.e., biological triplicates). […]
compound,measurement,setting,value
CC(=O)N[C@@H](Cc1c[nH]c2ccccc12)C(N)=O [Ac-W-NH2],pH dependence of TLC retention (1-Rf),[1],independent of pH
CC(=O)N[C@@H](Cc1ccc(O)cc1)C(N)=O [Ac-Y-NH2],pH dependence of TLC retention (1-Rf),[1],independent of pH
O=C1OC2(c3ccc(O)cc3Oc3cc(O)ccc32)c2ccccc21 [fluorescein],pKa (dianionic/monoanionic forms),[2],6.4
same,pKa (monoanionic/neutral forms),[2],4.3
same,pKa (neutral/cationic forms),[2],2.1
"(CK(TMR)RKKRRQRRR)2 (disulfide) [dfTAT, dimer of TAT linked by a cystine disulfide bridge, labeled with two tetramethylrhodamine fluorophores]",endosomal escape,live cells,high levels of endosomal escape
same,time for cell penetration and payload delivery,live cells,less than an hour
same,protein payload remaining trapped inside endosomes relative to what entered the cytosol,live cells; protein payloads co-incubated with dfTAT,less than 10%
(K(RhB))TAT: monomeric peptide CXRKKRRQRRRG with X = K(RhB) (CK(RhodamineB)RKKRRQRRRG-NH2),effect of dimerization on hydrophobicity (dimer vs monomer),"[3]; pH 2, (X)TAT vs d(X)TAT",most impacted by dimerization
d(K(RhB))TAT: disulfide dimer of CXRKKRRQRRRG with X = lysine conjugated to rhodamine B (CK(RhodamineB)RKKRRQRRRG-NH2; also: disulfide dimer),relative hydrophobicity of X group by C18 HPLC,"[3]; 0.1% TFA (pH 2), ranking within the d(X)TAT series",most hydrophobic
same,d(X)TAT concentration at which delivery is achieved in a high percentage of cells,MDA-MB-231 cells,< 3 µM
